# Assay results from PMC11125646 (Viruses, 2024).
# Read-outs that look alike come from different tables or passages of the source.
# What was measured:
# hCoV OC43 = test: Inhibition of OC43-induced cytopathogenicity in Vero-76 cells (MTT); format: cell-based
# SARS-CoV-2 = format: cell-based
# in vitro = conditions: African green monkey (Cercopithecus aethiops)
# [1] = Cytotoxicity in SK-MES-1 cells (MTT); format: cell-based; conditions: human
# hCoV-229E [2] = test: microbe, parasite or virus in culture; format: cell-based; conditions: for EC50: Human coronavirus 229E
# EV-A71 = test: Inhibition of EVA71-induced cytopathogenicity (MTT); format: cell-based; conditions: Enterovirus A, 50% protection from EVA71-induced cytopathogenicity
# OC43 [3] = test: Cell pretreatment assay (OC43, Vero-76); format: cell-based, hCoV-OC43; conditions: 2 h pre-treatment, 50, 20, 4, 0.8 μM, viability after six days
# OC43 [4] = test: OC43 virucidal activity assay; format: cell-based, hCoV-OC43; conditions: 0 °C and 37 °C, before cell infection
# OC43 [5] = test: OC43 yield reduction assay in Vero-76 cells; format: cell-based, hCoV-OC43
# OC43 [6] = test: Adsorption assay (OC43, Vero-76); conditions: virus and cells incubated at 4 °C in presence of compound
# [7] = Cytotoxicity in Caco-2 cells (MTT); format: cell-based, human; conditions: human, MTT; for CC50 at 24 h: Caco-2, 24 h; for CC50 at 72 h: Caco-2, 72 h
# Caco-2 cells = test: Cytotoxicity in Caco-2 cells (MTT); format: cell-based, human
# [8] = Cytotoxicity in Vero-76 cells (MTT); conditions: African green monkey (Cercopithecus aethiops); for CC50: Vero-76 cells
# Mpro of SARS-CoV-2 = test system: Mpro of SARS-CoV-2; set-up: method as in earlier work; conditions: ref [41]; cited from earlier work
# hCoV-229E [9] = test system: hCoV-229E; set-up: method as in earlier work; conditions: Huh-7 cells; ref [41]; read-out: EC50, replication of HCoV-229E in Huh-7 cells; cited from earlier work
# [10] = Betacoronavirus 1, 50% protection of Vero-76 cells from OC43-induced cytopathogenicity, MTT, read-out: OC43 EC50
# [11] = 50% protection of SK-MES-1 cells from 229E-induced cytopathogenicity, MTT, read-out: 229E EC50
# [12] = Betacoronavirus 1, OC43, Vero 76, cinnamic acids, read-out: OC43 EC50 (Table S1)
# [13] = SK-MES-1, cinnamic acids, read-out: 229E EC50 (Table S1)
compound,measurement,setting,value
COc1ccc(/C=C/C(=O)Oc2cc(O)c3c(=O)c(O)c(-c4ccc(O)c(O)c4)oc3c2)cc1OC [Compound 1],activity against OC43 (words),hCoV OC43,no activity
same,EC50,hCoV OC43; [10],> 54.7 µM
same,activity against SARS-CoV-2 (words),SARS-CoV-2,no activity
same,CC50 at 120 h,in vitro,54.7 µM
COc1cc(/C=C/C(=O)Oc2cc(O)c3c(=O)c(O)c(-c4ccc(O)c(O)c4)oc3c2)ccc1O [Compound 2],EC50,hCoV OC43; [10],> 11.4 µM
same,CC50 at 120 h,in vitro,11.4 µM
O=C(/C=C/c1ccc(O)cc1)Oc1cc(O)c2c(=O)c(O)c(-c3ccc(O)c(O)c3)oc2c1 [Compound 3],activity against OC43 (words),hCoV OC43,no evidence of activity
same,EC50,hCoV OC43; [10],> 60 µM
same,CC50 at 120 h,in vitro,60 µM
O=C(/C=C/c1ccccc1O)Oc1cc(O)c2c(=O)c(O)c(-c3ccc(O)c(O)c3)oc2c1 [Compound 4],EC50,hCoV OC43; [10],> 78 µM
same,CC50 at 120 h,in vitro,78 µM
O=C(/C=C/c1cccc(O)c1)Oc1cc(O)c2c(=O)c(O)c(-c3ccc(O)c(O)c3)oc2c1 [Compound 5],EC50,hCoV OC43; [10],> 75 µM
same,CC50 at 120 h,in vitro,75 µM
O=C(/C=C/c1ccc2c(c1)OCO2)Oc1cc(O)c2c(=O)c(O)c(-c3ccc(O)c(O)c3)oc2c1 [Compound 6],EC50,hCoV OC43; [10],2.4 ± 0.56 µM
same,CC50 at 48 h,[1],33 µM
same,CC50 at 120 h,in vitro,30 µM
same,EC50,hCoV-229E [2]; [11],> 33 µM
COc1cc(/C=C/C(=O)Oc2cc(O)c3c(=O)c(O)c(-c4ccc(O)c(O)c4)oc3c2)cc(OC)c1O [Compound 7],selectivity index,hCoV OC43,15
same,EC50,hCoV OC43; [10],6.5 ± 0.7 µM
same,CC50 at 48 h,[1],> 100 µM
same,EC50,EV-A71,> 100 µM
same,protection of pre-treated Vero-76 monolayers from OC43 infection,OC43 [3],failed to inhibit OC43 infection
same,activity against SARS-CoV-2 (words),SARS-CoV-2,showed activity
same,virus titers of treated vs untreated samples (virucidal activity),OC43 [4],did not significantly differ
same,reduction in the OC43 titer,"OC43 [5]; 4 µM, Vero-76, m.o.i. 0.1",2 logs
same,reduction in the viral titer,"OC43 [5]; 50, 20, 4 and 0.8 µM, Vero-76",significant dose-dependent reduction
same,CC50 at 24 h,in vitro,> 100 µM
same,CC50 at 72 h,in vitro,> 100 µM
same,CC50 at 120 h,in vitro,100 µM
same,EC50,hCoV-229E [2]; [11],> 100 µM
same,block of OC43 viral binding (adsorption),OC43 [6],efficiently able to block OC43 viral binding
same,CC50 at 24 h,[7],> 100 µM
same,CC50 at 72 h,[7],70 µM
same,cytotoxicity against Caco-2 cells,Caco-2 cells; 24 h,No relevant cytotoxicity
same,cytotoxicity against Caco-2 cells,Caco-2 cells; 72 h,a slight increase
O=C(/C=C/c1ccc(O)c(O)c1)Oc1cc(O)c2c(=O)c(O)c(-c3ccc(O)c(O)c3)oc2c1 [Compound 8],EC50,hCoV OC43; [10],15 µM
same,CC50 at 48 h,[1],> 100 µM
same,activity against SARS-CoV-2 (words),SARS-CoV-2,showed activity
same,CC50 at 120 h,in vitro,70 µM
same,EC50,hCoV-229E [2]; [11],> 100 µM
COc1ccc(/C=C/C(=O)O)cc1OC [Compound A1],EC50,hCoV OC43; [12],> 100 µM
same,CC50,in vitro,> 100 µM
COc1cc(/C=C/C(=O)O)ccc1O [Compound A2],EC50,hCoV OC43; [12],> 100 µM
same,CC50,in vitro,> 100 µM
O=C(O)/C=C/c1ccc(O)cc1 [Compound A3],EC50,hCoV OC43; [12],> 100 µM
same,CC50,[8],> 100 µM
O=C(O)/C=C/c1ccccc1O [Compound A4],EC50,hCoV OC43; [12],> 100 µM
same,CC50,in vitro,> 100 µM
O=C(O)/C=C/c1cccc(O)c1 [Compound A5],EC50,hCoV OC43; [12],> 100 µM
same,CC50,in vitro,> 100 µM
"COc1cc(/C=C/C(=O)O)cc(OC)c1O [Compound A7, sinapic acid]",activity against OC43 (words),hCoV OC43,no anti-beta coronavirus activity
same,EC50,hCoV OC43; [12],> 44 µM
same,CC50,[8],44 µM
same,CC50,"[1]; cinnamic acids, read-out: SK-MES-1 CC50 (Table S1)",> 100 µM
same,activity against SARS-CoV-2 (words),SARS-CoV-2,no anti-beta coronavirus activity
same,EC50,hCoV-229E [2]; [13],> 100 µM
O=C(O)/C=C/c1ccc(O)c(O)c1 [Compound A8],EC50,hCoV OC43; [12],> 100 µM
same,CC50,[1],> 100 µM
same,CC50,in vitro,> 100 µM
same,EC50,hCoV-229E [2]; [13],> 100 µM
"CCN(CCO)CCCC(C)Nc1ccnc2cc(Cl)ccc12 (stereo not drawn) [Hydroxychloroquine, reference compound]",EC50,hCoV OC43; [10],1.9 ± 0.8 µM
same,CC50 at 120 h,in vitro,60 µM
"O=c1c(O)c(-c2ccc(O)c(O)c2)oc2cc(O)cc(O)c12 [Quercetin, reference compound]",activity against OC43 (words),hCoV OC43,no activity
same,EC50,hCoV OC43; [10],> 20 µM
same,activity against OC43 (words),hCoV OC43; listed as quercetin,no anti-beta coronavirus activity
same,IC50,Mpro of SARS-CoV-2,6.79 µM
same,cytotoxicity against Vero-76 cells,Vero-76 cells,No cytotoxicity was detected
same,EC50,hCoV-229E [9],4.88 µM
same,CC50 at 24 h,[8],> 100 µM
same,CC50 at 72 h,[8],100 µM
same,CC50 at 120 h,[8],20 µM
same,CC50 at 48 h,"[1]; mock-infected SK-MES-1 cells, 48 h post-treatment, MTT, read-out: SK-MES-1 CC50",> 100 µM
same,EC50,EV-A71,> 100 µM
same,activity against SARS-CoV-2 (words),SARS-CoV-2,no activity
same,activity against SARS-CoV-2 (words),SARS-CoV-2; listed as quercetin,no anti-beta coronavirus activity
same,EC50,hCoV-229E [2]; [11],51 µM
same,CC50 at 24 h,[7],88.7 µM
same,CC50 at 72 h,[7],61 µM
"CCC(CC)COC(=O)[C@H](C)N[P@](=O)(OC[C@H]1O[C@@](C#N)(c2ccc3c(N)ncnn23)[C@H](O)[C@@H]1O)Oc1ccccc1 [Remdesivir, reference compound]",CC50 at 48 h,[1],> 100 µM
same,CC50 at 120 h,in vitro,> 100 µM
same,EC50,hCoV-229E [2]; [11],5 ± 1 µM
"CCOC(=O)/C=C/[C@H](C[C@@H]1CCNC1=O)NC(=O)[C@@H](CC(=O)[C@@H](NC(=O)c1cc(C)on1)C(C)C)Cc1ccc(F)cc1 [Rupintrivir, reference compound]",EC50,EV-A71,0.07 µM
same,CC50,in vitro,> 100 µM
COc1cc(/C=C/C(=O)O)ccc1O [ferulic acid],activity against OC43 (words),hCoV OC43,No inhibitory effect
same,activity against SARS-CoV-2 (words),SARS-CoV-2,No inhibitory effect
same,activity against 229E,hCoV-229E [2],No inhibitory effect
Dextran sulphate [reference compound],protection of pre-treated Vero-76 monolayers from OC43 infection,OC43 [3],failed to inhibit OC43 infection
